In PubChem BioAssay AID1963438 (Molecular Pharmacology Branch, DTP, NCI, 2024):

Tested on: NCI-H510 multicellular tumor spheroid growth, % test/control
Assay: Anticancer human tumor NCI-H510 cell line growth inhibition [Asc];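 note: spheroids exposed to agents for 7 days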;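 for viability, T/C: 100% = DMSO vehicle control wells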
Settings: for IC50: curve of first compound; for viability, T/C: stronger effect = lower value
Method in brief: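 Concentration series start at each agent's clinical Cmax, or at 10 microM when none is established, and drop in half-log steps; agents are applied alone or together to complex spheroids built with HUVEC and hMSC.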

[1] = second compound 0.03 µM, first compound 0.0316 µM
[2] = second compound 0.03 µM, first compound 0.1 µM
[3] = second compound 0.03 µM, first compound 0.316 µM
[4] = second compound 0.03 µM, first compound 1 µM
[5] = second compound 0.0949 µM, first compound 0.0316 µM
[6] = second compound 0.0949 µM, first compound 0.1 µM
[7] = second compound 0.0949 µM, first compound 0.316 µM
[8] = second compound 0.0949 µM, first compound 1 µM
[9] = second compound 0.3 µM, first compound 0.0316 µM
[10] = second compound 0.3 µM, first compound 0.1 µM
[11] = second compound 0.3 µM, first compound 0.316 µM
[12] = second compound 0.3 µM, first compound 1 µM
[13] = second compound 0.949 µM, first compound 0.0316 µM
[14] = second compound 0.949 µM, first compound 0.1 µM
[15] = second compound 0.949 µM, first compound 0.316 µM
[16] = second compound 0.949 µM, first compound 1 µM
[17] = second compound 3 µM, first compound 0.0316 µM
[18] = second compound 3 µM, first compound 0.1 µM
[19] = second compound 3 µM, first compound 0.316 µM
[20] = second compound 3 µM, first compound 1 µM

SMILES: C=CC(=O)N1CCN(c2nc(=O)n(-c3c(C)ccnc3C(C)C)c3nc(-c4c(O)cccc4F)c(F)cc23)C(C)C1 (stereo not given) + CNC(C)C(=O)NC1CN(S(=O)(=O)c2cccc(S(=O)(=O)N3CCC4CCC(C(=O)NC(c5ccccc5)c5ccccc5)N4C(=O)C(NC(=O)C(C)NC)C3)c2)CCC2CCC(C(=O)NC(c3ccccc3)c3ccccc3)N2C1=O
- IC50 (second compound 0.01 µM): > 10000 nM
- IC50 (second compound 0.0316 µM): > 10000 nM
- IC50 (second compound 0.1 µM): > 10000 nM
- IC50 (second compound 0.316 µM): > 10000 nM
- IC50 (second compound 1 µM): > 10000 nM
- viability, T/C (second compound 0.01 µM, first compound 0.0316 µM): 115%
- viability, T/C (second compound 0.01 µM, first compound 0.1 µM): 101%
- viability, T/C (second compound 0.01 µM, first compound 0.316 µM): 102%
- viability, T/C (second compound 0.01 µM, first compound 1 µM): 115%
- viability, T/C (second compound 0.01 µM, first compound 3.16 µM): 113%
- viability, T/C (second compound 0.01 µM, first compound 10 µM): 115%
- viability, T/C (second compound 0.0316 µM, first compound 0.0316 µM): 105%
- viability, T/C (second compound 0.0316 µM, first compound 0.1 µM): 108%
- viability, T/C (second compound 0.0316 µM, first compound 0.316 µM): 95.6%
- viability, T/C (second compound 0.0316 µM, first compound 1 µM): 119%
- viability, T/C (second compound 0.0316 µM, first compound 3.16 µM): 104%
- viability, T/C (second compound 0.0316 µM, first compound 10 µM): 110%
- viability, T/C (second compound 0.1 µM, first compound 0.0316 µM): 112%
- viability, T/C (second compound 0.1 µM, first compound 0.1 µM): 95.8%
- viability, T/C (second compound 0.1 µM, first compound 0.316 µM): 102%
- viability, T/C (second compound 0.1 µM, first compound 1 µM): 91.9%
- viability, T/C (second compound 0.1 µM, first compound 3.16 µM): 105%
- viability, T/C (second compound 0.1 µM, first compound 10 µM): 106%
- viability, T/C (second compound 0.316 µM, first compound 0.0316 µM): 110%
- viability, T/C (second compound 0.316 µM, first compound 0.1 µM): 113%
- viability, T/C (second compound 0.316 µM, first compound 0.316 µM): 102%
- viability, T/C (second compound 0.316 µM, first compound 1 µM): 95.8%
- viability, T/C (second compound 0.316 µM, first compound 3.16 µM): 104%
- viability, T/C (second compound 0.316 µM, first compound 10 µM): 93.3%
- viability, T/C (second compound 1 µM, first compound 0.0316 µM): 96.5%
- viability, T/C (second compound 1 µM, first compound 0.1 µM): 105%
- viability, T/C (second compound 1 µM, first compound 0.316 µM): 107%
- viability, T/C (second compound 1 µM, first compound 1 µM): 101%
- viability, T/C (second compound 1 µM, first compound 3.16 µM): 98.2%
- viability, T/C (second compound 1 µM, first compound 10 µM): 110%

SMILES: O=C(c1ccc(F)c(F)c1Nc1ccc(I)cc1F)N1CC(O)([C@@H]2CCCCN2)C1 + CCN1C(C(=O)NC23CCC(C(=O)O)(CC2)CC3)C(c2cccc(Cl)c2F)C2(C(=O)Nc3cc(Cl)ccc32)C12CCCCC2
- IC50 (second compound 0.03 µM): > 1000 nM
- IC50 (second compound 0.0949 µM): > 1000 nM
- IC50 (second compound 0.3 µM): > 1000 nM
- IC50 (second compound 0.949 µM): > 1000 nM
- IC50 (second compound 3 µM): > 1000 nM
- viability, T/C (second compound 0.03 µM, first compound 0.00316 µM): 95.8%
- viability, T/C (second compound 0.03 µM, first compound 0.01 µM): 126%
- viability, T/C [1]: 130%
- viability, T/C [2]: 121%
- viability, T/C [3]: 103%
- viability, T/C [4]: 103%
- viability, T/C (second compound 0.0949 µM, first compound 0.00316 µM): 127%
- viability, T/C (second compound 0.0949 µM, first compound 0.01 µM): 124%
- viability, T/C [5]: 105%
- viability, T/C [6]: 95.7%
- viability, T/C [7]: 126%
- viability, T/C [8]: 116%
- viability, T/C (second compound 0.3 µM, first compound 0.00316 µM): 122%
- viability, T/C (second compound 0.3 µM, first compound 0.01 µM): 111%
- viability, T/C [9]: 120%
- viability, T/C [10]: 119%
- viability, T/C [11]: 117%
- viability, T/C [12]: 91.5%
- viability, T/C (second compound 0.949 µM, first compound 0.00316 µM): 120%
- viability, T/C (second compound 0.949 µM, first compound 0.01 µM): 132%
- viability, T/C [13]: 132%
- viability, T/C [14]: 131%
- viability, T/C [15]: 118%
- viability, T/C [16]: 116%
- viability, T/C (second compound 3 µM, first compound 0.00316 µM): 134%
- viability, T/C (second compound 3 µM, first compound 0.01 µM): 160%
- viability, T/C [17]: 140%
- viability, T/C [18]: 114%
- viability, T/C [19]: 124%
- viability, T/C [20]: 127%

SMILES: C=C(F)C(=O)N1CCN(c2nc(OCC3CCCN3C)nc3c2CCN(c2cccc4cccc(Cl)c24)C3)CC1CC#N (stereo not given) + CCN1C(C(=O)NC23CCC(C(=O)O)(CC2)CC3)C(c2cccc(Cl)c2F)C2(C(=O)Nc3cc(Cl)ccc32)C12CCCCC2
- IC50 (second compound 0.03 µM): 1170 nM
- IC50 (second compound 0.0949 µM): 1100 nM
- IC50 (second compound 0.3 µM): 1280 nM
- IC50 (second compound 0.949 µM): 717 nM
- IC50 (second compound 3 µM): 1180 nM
- viability, T/C [1]: 93.8%
- viability, T/C [2]: 103%
- viability, T/C [3]: 88.3%
- viability, T/C [4]: 58.2%
- viability, T/C (second compound 0.03 µM, first compound 3.16 µM): 1.61%
- viability, T/C (second compound 0.03 µM, first compound 10 µM): 0.12%
- viability, T/C [5]: 78.5%
- viability, T/C [6]: 89%
- viability, T/C [7]: 100%
- viability, T/C [8]: 54.6%
- viability, T/C (second compound 0.0949 µM, first compound 3.16 µM): 3.81%
- viability, T/C (second compound 0.0949 µM, first compound 10 µM): 0.11%
- viability, T/C [9]: 106%
- viability, T/C [10]: 88%
- viability, T/C [11]: 109%
- viability, T/C [12]: 62.5%
- viability, T/C (second compound 0.3 µM, first compound 3.16 µM): 7.29%
- viability, T/C (second compound 0.3 µM, first compound 10 µM): 0.11%
- viability, T/C [13]: 95.3%
- viability, T/C [14]: 91.4%
- viability, T/C [15]: 88.5%
- viability, T/C [16]: 34.3%
- viability, T/C (second compound 0.949 µM, first compound 3.16 µM): 4.93%
- viability, T/C (second compound 0.949 µM, first compound 10 µM): 0.1%
- viability, T/C [17]: 87.5%
- viability, T/C [18]: 121%
- viability, T/C [19]: 95%
- viability, T/C [20]: 52.5%
- viability, T/C (second compound 3 µM, first compound 3.16 µM): 20.7%
- viability, T/C (second compound 3 µM, first compound 10 µM): 0.18%
